Experimental findings from ChEMBL document CHEMBL1201862, “PubChem BioAssay data set” (2004) are described below.

In one test the target is Cytochrome P450 2C19 (Homo sapiens, UniProt P33261). Kind of test: Cytochrome panel assay with activity outcomes. Panel member name: p450-cyp2c19 Compounds with AC50 equal or less than 10 uM are considered active. The class given is functional. As to conditions: read-out: AC50.
The target in a further test is T1, Cytochrome P450 1A2 (Homo sapiens, UniProt P05177).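 Also: PubChem cytochrome P450 panel assay, CYP1A2 panel member.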
T1 sequence (P05177 whole entry): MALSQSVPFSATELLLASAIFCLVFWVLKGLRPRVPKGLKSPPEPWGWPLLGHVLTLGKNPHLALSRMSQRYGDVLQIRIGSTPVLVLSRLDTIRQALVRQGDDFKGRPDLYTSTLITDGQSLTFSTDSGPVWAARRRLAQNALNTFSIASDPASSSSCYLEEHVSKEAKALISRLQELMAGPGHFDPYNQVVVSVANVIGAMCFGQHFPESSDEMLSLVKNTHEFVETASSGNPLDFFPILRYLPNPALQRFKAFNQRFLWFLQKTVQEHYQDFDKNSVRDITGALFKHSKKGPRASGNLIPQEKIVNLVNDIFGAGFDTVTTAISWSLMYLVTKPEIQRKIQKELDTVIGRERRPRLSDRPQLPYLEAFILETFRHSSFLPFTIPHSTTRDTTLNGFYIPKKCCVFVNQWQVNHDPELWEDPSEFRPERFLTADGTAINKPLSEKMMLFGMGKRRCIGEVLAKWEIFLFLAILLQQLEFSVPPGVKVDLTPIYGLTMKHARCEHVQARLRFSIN

The next test deals with Cytochrome P450 2C9 (Homo sapiens, UniProt P11712).
The target of the next test is Cytochrome P450 3A4 (Homo sapiens, UniProt P08684).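 Also: CYP3A4 tested as one member of a cytochrome P450 panel screen.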
Test [1] has as its system Streptococcus sp. 'group A'. Kind of test: growth inhibition of control SK(-) GAS strain, dose response, counter-screen for streptokinase expression inhibitor project, luminescence, kanamycin, BacTiterGlo, confirmation (AID 1900). It is filed as functional, organism-based. In general terms: Counterscreens check selectivity or assay interference.
The next test concerns the target T2, Streptokinase A (Streptococcus pyogenes serotype M1, UniProt P10520).
T2 sequence (P10520 whole entry): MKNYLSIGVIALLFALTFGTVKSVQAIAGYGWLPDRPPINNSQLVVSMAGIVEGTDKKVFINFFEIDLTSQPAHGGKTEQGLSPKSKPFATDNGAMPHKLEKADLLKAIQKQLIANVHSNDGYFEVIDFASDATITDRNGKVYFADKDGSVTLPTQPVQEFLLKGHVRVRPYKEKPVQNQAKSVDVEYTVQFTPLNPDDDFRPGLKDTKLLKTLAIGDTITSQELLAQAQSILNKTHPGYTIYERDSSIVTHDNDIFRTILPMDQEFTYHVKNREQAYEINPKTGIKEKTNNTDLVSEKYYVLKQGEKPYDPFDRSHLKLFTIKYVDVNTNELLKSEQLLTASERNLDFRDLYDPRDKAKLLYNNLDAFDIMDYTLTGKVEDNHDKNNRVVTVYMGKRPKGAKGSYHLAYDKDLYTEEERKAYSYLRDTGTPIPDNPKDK
In words: S. pyogenes streptokinase expression inhibitors, potency, dose response, plasminogen activation absorbance, OD405 (AID 1914).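 Also: secreted streptokinase activity via plasminogen activation per viability signal from cell pellet.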 It is filed as functional, Streptococcus pyogenes M1 GAS.

The subject of another test is Streptococcus. In words: Group A Streptococcus viability loss, dose response, counter-screen for streptokinase expression inhibitor project, luminescence, BacTiterGlo (AID 1915).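 Also: potency for reduction of bacterial viability or growth.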 The class given is functional, organism-based.
The target of test [2] is T3, Rac GTPase-activating protein 1 (Homo sapiens, UniProt Q9H0H5).
T3 sequence (Q9H0H5 whole entry): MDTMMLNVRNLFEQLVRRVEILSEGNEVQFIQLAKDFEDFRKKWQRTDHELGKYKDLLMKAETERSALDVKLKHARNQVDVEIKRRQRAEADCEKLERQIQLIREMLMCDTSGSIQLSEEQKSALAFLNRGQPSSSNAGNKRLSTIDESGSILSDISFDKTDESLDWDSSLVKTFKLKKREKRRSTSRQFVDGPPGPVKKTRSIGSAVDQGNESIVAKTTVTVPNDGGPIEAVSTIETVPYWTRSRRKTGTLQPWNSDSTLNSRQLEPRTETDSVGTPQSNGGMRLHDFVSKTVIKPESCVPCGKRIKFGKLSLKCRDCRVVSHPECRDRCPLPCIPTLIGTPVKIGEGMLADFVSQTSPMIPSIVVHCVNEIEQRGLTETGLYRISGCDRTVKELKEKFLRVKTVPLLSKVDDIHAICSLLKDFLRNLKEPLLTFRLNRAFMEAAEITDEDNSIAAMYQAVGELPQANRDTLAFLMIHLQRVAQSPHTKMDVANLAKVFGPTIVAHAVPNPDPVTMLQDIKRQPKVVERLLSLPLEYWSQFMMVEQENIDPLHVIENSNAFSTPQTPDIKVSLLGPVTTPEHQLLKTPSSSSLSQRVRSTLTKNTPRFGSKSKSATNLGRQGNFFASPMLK
Kind of test: MgcRacGAP GTPase-activating activity inhibitors, confirmation, biochemical, ADP Hunter fluorescence, primary and confirmatory (AID 624330). The class given is functional.

Test [3] has as its target T4, Corticotropin-releasing factor receptor 2/Corticotropin-releasing factor-binding protein (Homo sapiens, UniProt P24387+Q13324).
T4 sequence (Q13324 whole entry): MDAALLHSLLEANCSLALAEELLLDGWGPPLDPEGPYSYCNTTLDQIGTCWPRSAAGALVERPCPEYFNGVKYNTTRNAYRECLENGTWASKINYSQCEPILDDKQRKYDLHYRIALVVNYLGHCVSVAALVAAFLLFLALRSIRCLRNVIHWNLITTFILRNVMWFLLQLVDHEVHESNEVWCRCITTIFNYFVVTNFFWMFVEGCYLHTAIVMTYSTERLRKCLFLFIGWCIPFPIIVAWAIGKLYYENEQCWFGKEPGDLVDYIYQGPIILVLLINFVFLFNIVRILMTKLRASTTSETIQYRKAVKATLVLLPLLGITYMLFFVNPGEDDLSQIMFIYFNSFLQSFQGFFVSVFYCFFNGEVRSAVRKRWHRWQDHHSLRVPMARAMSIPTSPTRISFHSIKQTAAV
T4 sequence (P24387 whole entry): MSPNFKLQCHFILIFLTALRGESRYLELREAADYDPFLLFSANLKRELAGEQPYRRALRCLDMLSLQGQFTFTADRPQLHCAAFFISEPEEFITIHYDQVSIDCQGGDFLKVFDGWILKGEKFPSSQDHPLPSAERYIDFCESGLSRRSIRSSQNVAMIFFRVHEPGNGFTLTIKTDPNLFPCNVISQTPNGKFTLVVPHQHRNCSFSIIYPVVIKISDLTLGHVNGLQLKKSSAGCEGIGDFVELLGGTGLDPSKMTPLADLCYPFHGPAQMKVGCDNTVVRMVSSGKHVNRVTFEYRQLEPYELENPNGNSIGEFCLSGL
In words: activators of CRF receptor 2 with binding protein – uHTS hits, confirmation (AID 602473). The class given is functional. Particulars: read-out: EC50_Mean.

Test [4] is described as follows: Luminescence Cell-Based Dose Retest to Confirm Inhibitors of Cancer Stem Cells. [Related pubchem assays (depositor defined):AID2717, AID2721]. It is filed as functional. As to conditions: Homo sapiens.

Usually AC50 stands for the midpoint of the concentration-response curve, whichever way the signal moves. By IC50 is commonly meant the concentration that inhibits the measured activity by half.

Calls of active or inactive are those of the source.

Chain of Cytochrome P450 2C19 (P33261 whole entry): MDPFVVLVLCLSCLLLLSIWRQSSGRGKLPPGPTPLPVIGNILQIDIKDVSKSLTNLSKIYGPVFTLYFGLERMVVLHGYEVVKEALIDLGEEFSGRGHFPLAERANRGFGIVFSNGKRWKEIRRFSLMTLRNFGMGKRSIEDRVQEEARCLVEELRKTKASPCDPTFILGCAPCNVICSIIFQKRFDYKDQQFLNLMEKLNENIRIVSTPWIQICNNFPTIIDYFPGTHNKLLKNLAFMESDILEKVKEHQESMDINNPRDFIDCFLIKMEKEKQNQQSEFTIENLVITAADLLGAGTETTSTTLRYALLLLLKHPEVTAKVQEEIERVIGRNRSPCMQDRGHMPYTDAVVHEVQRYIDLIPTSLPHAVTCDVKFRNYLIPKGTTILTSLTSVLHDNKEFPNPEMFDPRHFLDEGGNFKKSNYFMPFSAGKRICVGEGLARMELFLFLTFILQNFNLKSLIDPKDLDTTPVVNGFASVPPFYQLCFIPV
Chain of Cytochrome P450 3A4 (P08684 whole entry): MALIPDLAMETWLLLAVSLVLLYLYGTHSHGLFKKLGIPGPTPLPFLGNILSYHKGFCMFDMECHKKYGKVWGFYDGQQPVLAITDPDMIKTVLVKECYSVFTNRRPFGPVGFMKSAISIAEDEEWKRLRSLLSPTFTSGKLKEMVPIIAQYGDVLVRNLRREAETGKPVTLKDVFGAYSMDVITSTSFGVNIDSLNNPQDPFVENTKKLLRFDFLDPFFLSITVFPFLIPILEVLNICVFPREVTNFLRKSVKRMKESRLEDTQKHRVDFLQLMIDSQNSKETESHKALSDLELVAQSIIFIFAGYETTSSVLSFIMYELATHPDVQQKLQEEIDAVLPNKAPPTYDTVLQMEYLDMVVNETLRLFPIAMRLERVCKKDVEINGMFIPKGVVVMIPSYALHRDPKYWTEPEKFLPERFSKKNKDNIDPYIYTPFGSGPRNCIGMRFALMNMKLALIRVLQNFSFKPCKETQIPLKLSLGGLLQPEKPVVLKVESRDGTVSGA
Chain of Cytochrome P450 2C9 (P11712 whole entry): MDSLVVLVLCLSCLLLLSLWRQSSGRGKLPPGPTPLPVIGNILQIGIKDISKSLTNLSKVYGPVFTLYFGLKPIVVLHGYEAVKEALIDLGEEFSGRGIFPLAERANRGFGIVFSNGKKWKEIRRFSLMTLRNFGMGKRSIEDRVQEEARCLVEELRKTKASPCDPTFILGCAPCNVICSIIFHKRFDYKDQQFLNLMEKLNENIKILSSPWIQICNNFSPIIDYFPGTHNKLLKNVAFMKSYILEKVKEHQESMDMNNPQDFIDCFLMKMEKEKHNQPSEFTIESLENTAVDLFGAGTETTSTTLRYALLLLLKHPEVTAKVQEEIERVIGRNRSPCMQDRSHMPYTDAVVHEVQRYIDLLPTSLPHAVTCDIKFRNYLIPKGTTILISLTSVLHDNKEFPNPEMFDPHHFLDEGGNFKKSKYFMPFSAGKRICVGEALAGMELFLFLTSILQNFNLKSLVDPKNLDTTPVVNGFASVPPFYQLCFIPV

With `Cc1nonc1NCn1nnc2ccccc21`, the figures for the AC50 at Cytochrome P450 2C19, at Cytochrome P450 1A2 and at Cytochrome P450 2C9 were 14.1 µM (inconclusive), 8.91 µM (inconclusive) and 5.01 µM (inconclusive), respectively.

Regarding `COc1cccc(Cn2c(=O)c(-c3cccs3)nc3cnc(OCc4ccccc4)nc32)c1`, the AC50 on Cytochrome P450 1A2 is 1.58 µM (inconclusive); at Cytochrome P450 3A4, 7.94 µM (inconclusive); on Cytochrome P450 2C9 it was 0.631 µM (inconclusive).

With `Cc1nn(C(=O)c2ccco2)c(C)c1Sc1ccccc1`, the AC50 is 39.8 µM (inconclusive) at Cytochrome P450 3A4 and 2.24 µM (inconclusive) on Cytochrome P450 2C9.

With `Cc1nn(-c2ccccc2)c(Cl)c1C1C(C#N)=C(N)OC2=C1C(=O)CC(C)(C)C2` (centres undefined), the figures for the EC50 (in [1]; on Streptokinase A; with Streptococcus) were 1.4 µM (active), > 150 µM (not active) and 16.1 µM (active), respectively.

As for `COc1ccc(-c2c(C#N)c(N)nc3sc(C(=O)c4ccccc4)c(N)c23)cc1`, the EC50 in test [1] was 5.29 µM (active); on Streptokinase A, > 150 µM (not active); in the test on Streptococcus, > 150 µM (not active).

As to `O=C(CNCC1CCCO1)Nc1ccc(N2CCCCCC2)cc1` (centres undefined), the IC50 in test [2] was 62.7 µM (active).

As to `O=c1c(-c2cc(F)cc(F)c2)nc2cncnc2n1-c1ccccc1`, the AC50 on Cytochrome P450 2C19 is 6.31 µM (inconclusive); on Cytochrome P450 2C9 it was 10 µM (inconclusive).

With `O=C(CCN1CCCCCC1)Nc1ccc2c(c1)OCCO2`, in test [2], the IC50 is 338 µM (active).

For the molecule `Nc1cc(C(F)(F)F)ccc1N1CCOCC1`, the half-inhibitory concentration (IC50) in test [2] was 29.9 µM (active).

In the case of `CCn1c(-c2ccccc2)c[nH]c1=S`, the EC50 at Streptokinase A is > 150 µM (not active).

For the molecule `Cc1ccc(-c2cc(-c3ccccc3Cl)[nH]n2)c(O)c1`, the EC50 in test [1] is 6.71 µM (active); at Streptokinase A, 20.1 µM (inconclusive); in the test with Streptococcus, 13.6 µM (active).

For the molecule `CN(C)CCCNC(=O)CCc1nc(O)c2ccccc2n1`, the values for the AC50 on Cytochrome P450 2C19 and at Cytochrome P450 2C9 were 7.08 µM (inconclusive) and 1 µM (inconclusive), respectively.

Consider `COc1cc(C)ccc1NC(=O)Cc1csc(NC(=O)Nc2ccccc2OC)n1`, for which the EC50 in [1] was 15.4 µM (active); on Streptokinase A it was 104 µM (active); in the test with Streptococcus it was > 150 µM (not active).

With `COc1ccc(CNC(=O)CN(C)Cc2ccc(C(C)(C)C)cc2)cc1`, the IC50 in [2] was 106 µM (active).

Turning to `Cc1ccc2c(c1)-c1c(cnn1CC(=O)O)CO2`, the AC50 at Cytochrome P450 1A2 is 0.794 µM (inconclusive); at Cytochrome P450 2C9 it was 11.2 µM (inconclusive).

In the case of `CCC(C(=O)NCC1CCCO1)n1nc(C)c2sc3ccccc3c2c1=O` (centres undefined), the EC50 (in [1]; at Streptokinase A; in the test with Streptococcus) was > 150 µM (not active) throughout.

For `CCCn1cc(CN2CCC(n3nccc3NC(=O)c3ccccc3)CC2)c(C)n1`, the EC50 (in test [1]; at Streptokinase A; with Streptococcus) was > 150 µM (not active) in each case.

For `c1ccc(-c2nc(C3CCCCC3)c3sccc3n2)cc1`, the EC50 was 4.26 µM (active) in test [1], 23.9 µM (active) on Streptokinase A and 15.5 µM (active) in the test with Streptococcus.

Regarding `Cc1cc(C(C)(C)C)cc(C)c1COC(=O)c1cccnc1`, the EC50 in [1] was 15.8 µM (active); at Streptokinase A, > 150 µM (not active); in the test with Streptococcus, > 150 µM (not active).

Consider `O=C(NCc1ccc(OC(F)(F)F)cc1)c1cccc2c1C(=O)c1ccc(N3CCC(Cc4ccccc4)CC3)cc1S2(=O)=O`, for which the EC50 in test [3] is 8.45 µM (active).

Consider `CCOC(=O)c1[nH]c(C)c(C)c1C`, for which the AC50 on Cytochrome P450 2C19 was 17.8 µM (inconclusive); at Cytochrome P450 2C9 it was 1.12 µM (inconclusive).

Turning to `O=S(=O)(c1ccc2ccccc2c1)N1CCN(c2ccc(O)cc2)CC1`, in test [4], the AC50 was 6.17 µM (active). Besides, in test [2], the IC50 is 35.8 µM (active).

For `Cc1cc(NC(=O)CCC(=O)N(CC2CCCO2)C(C(=O)NC2CCCC2)c2cccnc2)no1` (centres undefined), the values for the AC50 on Cytochrome P450 3A4 and on Cytochrome P450 2C9 were 1.41 µM (inconclusive) and 17.8 µM (inconclusive), respectively.

As to `O=[N+]([O-])c1ccc(-c2ccc(/C=N/Nc3nc(N4CCCC4)nc(N4CCCC4)n3)o2)cc1`, in [3], the EC50 was 2.8 µM (active).

In the case of `Cc1ccsc1/C=C1\Oc2cc(O)ccc2C1=O`, the EC50 in test [3] was 11.1 µM (active).

For the molecule `C/C=C(\C)C(=O)OC1CC(C)(C)C[C@H]2C3=CC[C@@H]4[C@@]5(C)CCC(O[C@@H]6O[C@@H](C(=O)O)[C@@H](O)C(O[C@@H]7OC[C@H](O)[C@@H](O)[C@@H]7O[C@@H]7OC(CO)C(O)[C@@H](O)[C@@H]7O)C6O[C@@H]6OC(CO)C(O)C(O)C6O)[C@@](C)(CO)[C@@H]5CC[C@]4(C)[C@]3(C)CC(O)[C@@]12CO` (some centres undefined), the EC50 in test [3] is 11.4 µM (active).

In the case of `COc1cc(C=C2NC(=O)NC2=O)ccc1O`, the IC50 in test [2] is 19 µM (active).

Regarding `O=C(CNC(=O)C1COc2ccccc2O1)N/N=C/c1ccc(O)cc1O` (centres undefined), the AC50 in test [4] is 6.23 µM (active). Also, the IC50 in test [2] is 71.7 µM (active).

As to `Cn1c(=O)n(C)c2cc(/C=N/NC(=O)c3ccc(Cl)cc3Cl)ccc21`, the figures for the AC50 on Cytochrome P450 1A2, at Cytochrome P450 3A4 and on Cytochrome P450 2C9 were 14.1 µM (inconclusive), 0.0398 µM (inconclusive) and 39.8 µM (inconclusive), respectively.

Take `COc1cc(OC)c(OC)cc1/C=N/N(C)c1ccccc1`: in [2], the IC50 was 43.7 µM (active).

On to `C/C(=N\NC(=O)C1CC1c1ccccc1)c1cccs1` (centres undefined), for which the AC50 at Cytochrome P450 2C19 was 2.24 µM (inconclusive); at Cytochrome P450 1A2 it was 15.8 µM (inconclusive); at Cytochrome P450 3A4, 8.91 µM (inconclusive); at Cytochrome P450 2C9 it was 11.2 µM (inconclusive).
